Source: BindingDB's records for patent US12390472 (Evopoint Biosciences, 2025)

Target: Histone-lysine N-methyltransferase EZH2 [Y641N] (UniProt Q15910, Y641N)
Assay: Test on EZH2 (Y641F) and EZH2 (Y641N) Inhibitory Activities
Description: ProceduresCompounds at different concentrations were dissolved in 100% DMSO and transferred to test plates, and the final concentration of DMSO was 1%. Enzyme solution and substrate SAM solution were prepared with 1-fold reaction buffer (optimized Tris buffer). 5 uL of enzyme solution was added to the test plate and wells only added with 5 uL of reaction buffer were used as negative control wells. […] 5 uL of receptor solution was added and the plate was incubated away from light at room temperature for 60 min. 10 uL of donor solution was added and the plate was incubated away from light at room temperature for 30 min. The endpoint values were read on the Envision and the IC50 was calculated.Data CalculationData were fitted by GraphPad Prism 5 software and inhibition rate was calculated according to equation (1)Inh %=(Max−Signal)/(Max−Min)×100 (1)IC50 was calculated using equation (2)Y=Bottom+(Top−Bottom)/(1+10^((Log IC 50 −X)×Hill Slope))Y: inhibition rate; X: concentration of the compound

Histone-lysine N-methyltransferase EZH2 [Y641N], sequence (Q15910 whole entry Y641N): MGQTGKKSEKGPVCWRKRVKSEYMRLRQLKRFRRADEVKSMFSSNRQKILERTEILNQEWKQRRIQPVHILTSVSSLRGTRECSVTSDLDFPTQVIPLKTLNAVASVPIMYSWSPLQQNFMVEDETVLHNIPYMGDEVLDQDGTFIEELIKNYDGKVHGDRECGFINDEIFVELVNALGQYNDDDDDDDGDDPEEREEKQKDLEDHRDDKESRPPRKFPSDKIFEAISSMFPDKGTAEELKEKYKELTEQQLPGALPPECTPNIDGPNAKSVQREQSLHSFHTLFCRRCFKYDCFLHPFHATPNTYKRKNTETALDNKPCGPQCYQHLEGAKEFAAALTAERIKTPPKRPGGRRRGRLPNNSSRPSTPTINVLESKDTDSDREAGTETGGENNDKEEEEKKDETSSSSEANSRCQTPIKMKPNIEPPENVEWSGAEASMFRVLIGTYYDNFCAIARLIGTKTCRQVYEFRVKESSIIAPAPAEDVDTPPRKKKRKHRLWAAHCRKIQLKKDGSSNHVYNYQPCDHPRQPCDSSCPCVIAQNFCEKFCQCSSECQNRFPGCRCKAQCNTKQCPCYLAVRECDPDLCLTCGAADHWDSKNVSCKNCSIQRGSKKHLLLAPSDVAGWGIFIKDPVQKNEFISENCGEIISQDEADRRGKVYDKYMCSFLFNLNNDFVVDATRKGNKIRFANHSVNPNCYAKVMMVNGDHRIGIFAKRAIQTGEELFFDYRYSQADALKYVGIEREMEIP

CCN(c1cc(O[C@H]2C[C@H](N3CCCCC3)C2)cc(C(=O)NCc2c(CO)cc(C)[nH]c2=O)c1C)C1CCC(F)(F)CC1 [US12390472, Example 95]
IC50: 3.1 nM
